Experimental data reported in PMC9482650, “Quantitative fragmentomics allow affinity mapping of interactomes” (Nature Communications, 2022).
Read-outs that look alike come from different tables or passages of the source. Ends that are not written are not given here.

Experiments:
TX1BP3 PDZ = molecular target: T1, TX1BP3 PDZ (Homo sapiens, UniProt O14907); experiment: Holdup assay; format: binding
T1 sequence (O14907 15-112 limits assumed): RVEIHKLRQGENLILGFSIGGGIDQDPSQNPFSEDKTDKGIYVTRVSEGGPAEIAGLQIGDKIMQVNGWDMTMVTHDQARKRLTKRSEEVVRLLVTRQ

SNX27 PDZ = SNX27 PDZ (Homo sapiens, UniProt Q96L92); experiment: Holdup assay; format: binding
DLG1_2 PDZ = DLG1_2 PDZ (Homo sapiens, UniProt Q12959); experiment: Holdup assay; format: binding
DLG1_1 PDZ = DLG1_1 PDZ (Homo sapiens, UniProt Q12959); experiment: Holdup assay; format: binding
SCRIB_1 PDZ = SCRIB_1 PDZ (Homo sapiens, UniProt Q14160); experiment: Holdup assay; format: binding
Sequence of SCRIB_1 PDZ (Q14160 728-815 limits assumed): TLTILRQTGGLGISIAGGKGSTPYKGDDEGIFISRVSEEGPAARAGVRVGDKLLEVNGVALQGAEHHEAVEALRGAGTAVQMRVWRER

[1] = test system: Jurkat cell extract preys; experiment: PDZ-AP-MS, biotinylated MBP-PDZ baits; format: binding, human; conditions: for Difference log2: enrichment of prey
Description: (§1) For PDZ-AP-MS experiments, PDZ domains were cloned as His6-AviTag-MBP-PDZ constructs. For co-expression with BirA, E. coli BL21(DE3) cells were co-transformed with His6-AviTag-MBP, or His6-AviTag-MBP-PDZ-coding and PET21a-BirA (Addgene #20857) plasmids. Simultaneously to IPTG induction, 50 µM biotin was added to the media. After cell harvesting, the lysis buffer was also supplemented with 50 µM biotin. Otherwise, expression and double affinity purification was identical as previously described in details.
(§2) For PBM-AP-MS experiments, 30 μl streptavidin resin was mixed with biotin or peptide at 50–60 μM concentration in 6–6.5 resin volume for 60 min to achieve resin saturation. For PDZ-AP-MS experiments, 30 μl streptavidin resin was mixed with biotinylated MBP or MBP-PDZ at 40-50 μM concentration in >1000× resin volume for 60 min to achieve resin saturation. After saturation, resins were washed a single time (ten resin volume, holdup buffer), and were depleted with biotin (1 mM biotin, 5–10 resin volume, 10 min). Finally, resins were washed two times. 0.5 ml 2 mg/ml cell lysate was added to the dry resin (1 mg total input) and were incubated at 4 °C for 2 h. Then, the beads were washed three times with 10 resin volume buffer containing: 50 mM TRIS pH 8.5, 150 mM NaCl, 1% TritonX-100, 10× complete EDTA-free protease inhibitor cocktail, 2 mM EDTA, 1 mM TCEP. Then, the beads were washed two times with ten resin volume buffer containing: 50 mM TRIS pH 8.5, 150 mM NaCl, 1 mM TCEP. Finally, captured protein was eluted from the resin in two steps and the eluted fractions were pooled. For each elution the beads were incubated for 30 min with three resin volume buffer containing: 20 mM TRIS pH8.5, 100 mM NaCl, 500 μM TCEP, 8 M Urea. Between each step, the beads were separated by mild centrifugation and the supernatant was removed by gentle pipetting.
(§3) The samples were precipitated with TCA 20% overnight at 4 °C and centrifuged at 14,000 rpm for 10 min at 4 °C. The protein pellets were washed twice with 1 mL cold acetone and air dried. The protein extracts were solubilized in urea 8 M, reduced with 5 mM TCEP for 30 min, and alkylated with 10 mM iodoacetamide for 30 min in the dark. Double digestion was performed at 37 °C with 500 ng endoproteinase Lys-C for 4 h, followed by fourfold dilution and an overnight digestion with 500 ng trypsin. Peptide mixtures were then desalted on C18 spin-column and dried on Speed-Vacuum.
(§4) Samples were analyzed using an Ultimate 3000 nano-RSLC (Thermo Scientific, San Jose California) coupled in line with a LTQ-Orbitrap ELITE mass spectrometer via a nano-electrospray ionization source (Thermo Scientific, San Jose California). Peptide mixtures were injected in 0.1% TFA on a C18 Acclaim PepMap100 trap-column (75 µm ID × 2 cm, 3 µm, 100 Å, Thermo Fisher Scientific) for 3 min at 5 µL/min with 2% ACN, 0.1% FA in H2O and then separated on a C18 Accucore nano-column (75 µm ID × 50 cm, 2.6 µm, 150 Å, Thermo Fisher Scientific) at 220 nl/min and 38 °C with a 90 min linear gradient from 5% to 30% buffer B (A: 0.1% FA in H2O/B: 99% ACN, 0.1% FA in H2O), regeneration at 5% B. The mass spectrometer was operated in positive ionization mode, in data-dependent mode with survey scans from m/z 350–1500 acquired in the Orbitrap at a resolution of 120,000 at m/z 400. The 20 most intense peaks from survey scans were selected for further fragmentation in the Linear Ion Trap with an isolation window of 2.0 Da and were fragmented by CID with normalized collision energy of 35%. (TOP20CID method) Unassigned and single charged states were excluded from fragmentation. The Ion Target Value for the survey scans (in the Orbitrap) and the MS2 mode (in the Linear Ion Trap) were set to 1E6 and 5E3 respectively and the maximum injection time was set to 100 ms for both scan modes. Dynamic exclusion was set to 20 s after one repeat count with mass width at ±10 ppm. […]

HaCat cell extract preys = experiment: PDZ-AP-MS, biotinylated MBP-PDZ baits; format: binding, human; conditions: for Difference log2: enrichment of prey
Description: as §1, §2, §3, §4

[2] = holdup affinity of the PBM peptide of the named protein, sheet PBMcomplexome, lower sub-table, 3.5 appears to be the floor for no detectable binding, read-out: affinity of PBM to TX1BP3 (pKd) (converted)
[3] = holdup affinity of the PBM peptide of the named protein, sheet PBMcomplexome, lower sub-table
[4] = holdup affinity of the PBM peptide of the named protein, sheet PBMcomplexome, lower sub-table, 3.5 appears to be the floor for no detectable binding, read-out: affinity of PBM to SCRIB_1 (pKd) (converted)
[5] = bait SCRIB_1 PDZ, fold change of prey
[6] = bait SNX27 PDZ, fold change of prey

DRIQSCLSDA [SBF1]
Kd (TX1BP3 PDZ; [2]): 91.2 µM

CC(C)C[C@H](NC(=O)[C@@H]1CCCN1C(=O)[C@@H]1CCCN1C(=O)[C@H](CCCCN)NC(=O)[C@H](CO)NC(=O)[C@H](CC(=O)O)NC(=O)CCCCCNC(=O)CCCC[C@@H]1SC[C@@H]2NC(=O)N[C@@H]21)C(=O)N1CCC[C@H]1C(=O)N1CCC[C@H]1C(=O)N[C@@H](CC(=O)O)C(=O)N[C@@H](CCC(=O)O)C(=O)N[C@@H](Cc1c[nH]c2ccccc12)C(=O)N[C@H](C(=O)O)C(C)C [MERS E]
Kd (SNX27 PDZ): 27.5 µM

DPRNTQTSQI [ABRAXAS2]
Kd (SNX27 PDZ): 91.2 µM | Kd (DLG1_2 PDZ; PBM motif of the named protein vs DLG1_2 PDZ, read-out: pKd values – domain-motif, DLG1_2 (converted)): 145 µM | Kd (DLG1_1 PDZ; PBM motif of the named protein vs DLG1_1 PDZ, read-out: pKd values – domain-motif, DLG1_1 (converted)): 324 µM | Kd (SCRIB_1 PDZ; PBM motif of the named protein vs SCRIB_1 PDZ, read-out: pKd values – domain-motif, SCRIB_1 (converted)): 95.5 µM | Kd (TX1BP3 PDZ; PBM motif of the named protein vs TX1BP3 PDZ, read-out: pKd values – domain-motif, TX1BP3 (converted)): 195 µM

EALLQMESVA [CAVIN3]
Kd (SNX27 PDZ; [3]): 74.1 µM | Kd (SCRIB_1 PDZ; [4]): 275 µM

VIM
Difference log2 ([1]; bait SCRIB_1 PDZ vs MBP): 7.128 | Ratio SCRIB_1/MBP [1, 5]: 139.918 | Difference log2 ([1]; bait SNX27 PDZ vs MBP): 6.235 | Ratio SNX27/MBP [1, 6]: 75.3373 | Difference log2 ([1]; bait TX1BP3 PDZ vs MBP): 7.255 | Ratio TX1BP3/MBP ([1]; bait TX1BP3 PDZ, fold change of prey): 152.718

TJP1
Difference log2 (HaCat cell extract preys; bait DLG1_1 PDZ vs MBP): 11.6713 | Ratio DLG1_1/MBP (HaCat cell extract preys; bait DLG1_1 PDZ, fold change of prey): 3261.52 | Difference log2 (HaCat cell extract preys; bait SCRIB_1 PDZ vs MBP): 5.351 | Ratio SCRIB_1/MBP (HaCat cell extract preys; [5]): 40.8237 | Difference log2 (HaCat cell extract preys; bait SNX27 PDZ vs MBP): 10.4278 | Ratio SNX27/MBP (HaCat cell extract preys; [6]): 1377.49

NLQEHSTTSV [RSBN1]
Kd (SNX27 PDZ; [3]): 3.31 µM | Kd (DLG1_2 PDZ; holdup affinity of the PBM peptide of the named protein, sheet PBMcomplexome, lower sub-table, 3.5 appears to be the floor for no detectable binding, read-out: affinity of PBM to DLG1_2 (pKd) (converted)): 102 µM | Kd (DLG1_1 PDZ; holdup affinity of the PBM peptide of the named protein, sheet PBMcomplexome, lower sub-table, 3.5 appears to be the floor for no detectable binding, read-out: affinity of PBM to DLG1_1 (pKd) (converted)): 316 µM | Kd (SCRIB_1 PDZ; [4]): 263 µM | Kd (TX1BP3 PDZ; [2]): 107 µM
